Experimental data reported in ChEMBL document CHEMBL1147414, “Synthesis of galactopyranosyl amino alcohols as a new class of antitubercular and antifungal agents” (2004).
Converted amounts (≈) assume the structure as drawn.

Assays:
Candida parapsilosis = assay: Minimum inhibitory concentration against Candida parapsilosis; format: functional; details: Lodderomyces parapsilosis
Candida albicans = assay: Minimum inhibitory concentration against Candida albicans; format: functional
[1] = tested on: Mycobacterium tuberculosis; assay: Minimum inhibitory concentration against Mycobacterium tuberculosis; format: functional
Trichophyton benhamiae = assay: Minimum inhibitory concentration against Trichophyton mentagrophytes; format: functional, Arthroderma benhamiae
Sporothrix schenckii = assay: Minimum inhibitory concentration against Sporothrix schenckii
Cryptococcus neoformans = assay: Minimum inhibitory concentration against Cryptococcus neoformans; format: functional
Aspergillus fumigatus = assay: Minimum inhibitory concentration against Aspergillus fumigatus; format: functional
[2] = tested on: Mycobacterium tuberculosis; assay: In vito growth of Mycobacterium tuberculosis BC-248 strain after 6 weeks; + indicates 1-20 colonies; format: functional, organism-based
[3] = tested on: Mycobacterium tuberculosis; assay: In vito growth of Mycobacterium tuberculosis BC-437 strain after 6 weeks; - indicates no growth; format: functional, organism-based
[4] = tested on: Mycobacterium tuberculosis; assay: In vito growth of Mycobacterium tuberculosis VA-101 strain after 6 weeks; […] colonies; format: functional, organism-based
[5] = tested on: Mycobacterium tuberculosis; assay: In vito growth of Mycobacterium tuberculosis BC-426 strain after 6 weeks; - indicates no growth; format: functional, organism-based
[6] = tested on: Mycobacterium tuberculosis; assay: In vito growth of Mycobacterium tuberculosis BC-248 strain after 6 weeks; - indicates no growth; format: functional, organism-based
[7] = tested on: Mycobacterium tuberculosis; assay: In vito growth of Mycobacterium tuberculosis BC-243 strain after 6 weeks; - indicates no growth; format: functional, organism-based

Row | Structure (SMILES) | MIC (Candida parapsilosis) [µg/mL] | MIC (Candida albicans) [µg/mL] | MIC [1] [µg/mL] | MIC (Trichophyton benhamiae) [µg/mL] | MIC (Sporothrix schenckii) [µg/mL] | MIC (Cryptococcus neoformans) [µg/mL] | MIC (Aspergillus fumigatus) [µg/mL] | Growth [2] | Growth [3] | Growth [4] | Growth [5] | Growth [6] | Growth [7]
1 | CC1(C)O[C@@H]2OC(COCC(O)CNCCCCCCCCCCCCNCC(O)COCC3O[C@@H]4OC(C)(C)O[C@@H]4[C@H]4OC(C)(C)O[C@@H]34)[C@H]3OC(C)(C)O[C@H]3[C@@H]2O1 (stereo partly specified) | > 50 | > 50 | 1.56 (≈ 1.87 µM) | 50 (≈ 60 µM) | > 50 | 12.5 (≈ 15 µM) | > 50 | 1-20 colonies | – | – | – | – | –
2 | CC(=O)N1CCN(c2ccc(OC[C@H]3CO[C@](Cn4ccnc4)(c4ccc(Cl)cc4Cl)O3)cc2)CC1 [KETOCONAZOLE] | 0.12 (≈ 0.226 µM) | 0.001 (≈ 0.00188 µM) | – | 0.25 (≈ 0.47 µM) | 0.5 (≈ 0.941 µM) | 0.12 (≈ 0.226 µM) | 0.25 (≈ 0.47 µM) | – | – | – | – | – | –
3 | CCCCCCCCCCCCCCCCNCC(O)COCC1O[C@@H]2OC(C)(C)O[C@@H]2[C@H]2OC(C)(C)O[C@@H]12 (stereo partly specified) | 25 (≈ 44.8 µM) | 25 (≈ 44.8 µM) | 12.5 (≈ 22.4 µM) | 12.5 (≈ 22.4 µM) | 25 (≈ 44.8 µM) | 6.25 (≈ 11.2 µM) | 25 (≈ 44.8 µM) | – | – | – | – | – | –
4 | CC1(C)O[C@@H]2OC(COCC(O)CNCCCCCCCCCNCC(O)COCC3O[C@@H]4OC(C)(C)O[C@@H]4[C@H]4OC(C)(C)O[C@@H]34)[C@H]3OC(C)(C)O[C@H]3[C@@H]2O1 (stereo partly specified) | > 50 | > 50 | > 50 | 50 (≈ 63.2 µM) | > 50 | 25 (≈ 31.6 µM) | > 50 | – | – | – | – | – | –
5 | CC1(C)O[C@H]2OC(COCC(O)CN3CCN(c4cccc(Cl)n4)CC3)[C@@H]3OC(C)(C)O[C@@H]3[C@H]2O1 (stereo partly specified) | > 50 | > 50 | > 50 | 25 (≈ 48.6 µM) | > 50 | 12.5 (≈ 24.3 µM) | > 50 | – | – | – | – | – | –
6 | C[C@@H]1CN(c2c(F)c(N)c3c(=O)c(C(=O)O)cn(C4CC4)c3c2F)C[C@H](C)N1 | – | – | – | – | – | – | – | – | No growth | 1-20 colonies | No growth | No growth | No growth
7 | CC1(C)O[C@H]2OC(COCC(O)CN3CCCCC3)[C@@H]3OC(C)(C)O[C@@H]3[C@H]2O1 (stereo partly specified) | > 50 | > 50 | > 50 | 50 (≈ 125 µM) | > 50 | 25 (≈ 62.3 µM) | > 50 | – | – | – | – | – | –
8 | CC1(C)O[C@@H]2OC(COCC(O)CNCCCCCCCNCC(O)COCC3O[C@@H]4OC(C)(C)O[C@@H]4[C@H]4OC(C)(C)O[C@@H]34)[C@H]3OC(C)(C)O[C@H]3[C@@H]2O1 (stereo partly specified) | > 50 | > 50 | > 50 | 50 (≈ 65.5 µM) | > 50 | 50 (≈ 65.5 µM) | > 50 | – | – | – | – | – | –
9 | CC1(C)O[C@H]2OC(COCC(O)CN3CCCC3)[C@@H]3OC(C)(C)O[C@@H]3[C@H]2O1 (stereo partly specified) | > 50 | > 50 | > 50 | 50 (≈ 129 µM) | > 50 | 25 (≈ 64.5 µM) | > 50 | – | – | – | – | – | –
10 | CC1(C)O[C@@H]2OC(COCC(O)CNCCCCCCCCCCNCC(O)COCC3O[C@@H]4OC(C)(C)O[C@@H]4[C@H]4OC(C)(C)O[C@@H]34)[C@H]3OC(C)(C)O[C@H]3[C@@H]2O1 (stereo partly specified) | > 50 | > 50 | > 50 | 50 (≈ 62.1 µM) | > 50 | 12.5 (≈ 15.5 µM) | > 50 | – | – | – | – | – | –
11 | CC1(C)O[C@H]2OC(COCC(O)CNCc3ccccc3)[C@@H]3OC(C)(C)O[C@@H]3[C@H]2O1 (stereo partly specified) | > 50 | > 50 | > 50 | 50 (≈ 118 µM) | > 50 | 25 (≈ 59 µM) | > 50 | – | – | – | – | – | –
12 | CCCCCCCC/C=C/CCCCCCCCNCC(O)COCC1O[C@@H]2OC(C)(C)O[C@@H]2[C@H]2OC(C)(C)O[C@@H]12 (stereo partly specified) | > 50 | 50 (≈ 85.6 µM) | 12.5 (≈ 21.4 µM) | 25 (≈ 42.8 µM) | 50 (≈ 85.6 µM) | 6.25 (≈ 10.7 µM) | 50 (≈ 85.6 µM) | – | – | – | – | – | –
13 | CC1(C)O[C@H]2OC(COCC(O)CNCc3ccco3)[C@@H]3OC(C)(C)O[C@@H]3[C@H]2O1 (stereo partly specified) | > 50 | > 50 | > 50 | 50 (≈ 121 µM) | > 50 | 25 (≈ 60.5 µM) | > 50 | – | – | – | – | – | –
14 | CC1(C)O[C@@H]2OC(COCC(O)CNCCCNCC(O)COCC3O[C@@H]4OC(C)(C)O[C@@H]4[C@H]4OC(C)(C)O[C@@H]34)[C@H]3OC(C)(C)O[C@H]3[C@@H]2O1 (stereo partly specified) | > 50 | > 50 | > 50 | 50 (≈ 70.7 µM) | > 50 | 25 (≈ 35.4 µM) | > 50 | – | – | – | – | – | –
15 | CCCCCCCCCCCCNCC(O)COCC1O[C@@H]2OC(C)(C)O[C@@H]2[C@H]2OC(C)(C)O[C@@H]12 (stereo partly specified) | 25 (≈ 49.8 µM) | 12.5 (≈ 24.9 µM) | 12.5 (≈ 24.9 µM) | 6.25 (≈ 12.5 µM) | 6.25 (≈ 12.5 µM) | 1.56 (≈ 3.11 µM) | 6.25 (≈ 12.5 µM) | – | – | – | – | – | –
16 | CC1(C)O[C@H]2OC(COCC(O)CN3CCOCC3)[C@@H]3OC(C)(C)O[C@@H]3[C@H]2O1 (stereo partly specified) | > 50 | > 50 | > 50 | 50 (≈ 124 µM) | > 50 | 25 (≈ 62 µM) | > 50 | – | – | – | – | – | –
17 | CC[C@@H](CO)NCCN[C@@H](CC)CO [ETHAMBUTOL] | – | – | 3.25 (≈ 15.9 µM) | – | – | – | – | – | – | – | – | – | –
